Experimental data published in patent publication US9365533B2, “Coumarin derivative” (NIPPON ZOKI PHARMACEUTICAL CO., LTD., priority 2012, dated 2016).

Experiments:
HFLS-OA cells = assay: Suppressive action to TNF-α-induced proliferation of synovial cells (HFLS-OA), BrdU ELISA; type: cell-based; details: 200 μmol/L test substance, human recombinant TNF-α 10 ng/mL, 5 days, BrdU incorporation increase by TNF-α = 100%; for activity at 200 µM: Synovial cell, 120 h, read-out: Synovial Cell Proliferation Rate (%)
Protocol: Evaluation of Suppressive Action to Cell Proliferation of Synovial Cells (HFLS-OA) Derived from Tissues of Human Osteoarthritis
(1) Incubation of HFLS-OA Cells
HFLS-OA cells were sown onto a 96-well plate so as to make them 10^4 cells/well/100 μL in a D-MEM containing 2 vol % of fetal bovine serum (FBS) and incubated for 24 hours. A test substance (200 μmol/L) and human recombinant TNF-α (10 ng/mL) were added thereto followed by incubating for 5 days.
(2) Measurement of Action to HFLS-OA Cell Proliferation
A kit [Cell Proliferation ELISA, BrdU (colorimetric) (Roche Diagnostics)] was used and measurement was conducted according to the protocol attached to the kit. HFLS-OA cells were incubated for 3 days and 10 μL of 5-bromo-2′-deoxyuridine (BrdU) dissolved in a phosphate buffered saline (PBS) (100 μmol/L, pH 7.4) was added to each well followed by incubating for 48 hours more. After the culture supernatant was removed from each well, 200 μL/well of an immobilization/denaturation solution was added thereto and the mixture was allowed to stand for 30 minutes whereby immobilization of the cells and denaturation of DNA were conducted. After the immobilization/denaturation solution was completely removed, 100 μL of a peroxidase-labeled anti-BrdU antibody solution was added thereto and the mixture was made to react at room temperature for 90 minutes. After washing with PBS, 100 μL of a substrate liquid (tetramethylbenzidine) was added to each well and the absorbance was measured. A cell proliferation rate upon addition of each test substance was calculated where an increase in incorporation of BrdU upon addition of TNF-α was defined as 100% of cell proliferation rate.

[1] = test system: cartilage pieces of bovine metacarpophalangeal joint; assay: Suppressive action to cartilage destruction: release of sGAG induced by IL-1α from cartilage pieces; type: cell-based; details: 25 μmol/L test substance, 2 h pretreatment, human recombinant IL-1α 3 ng/mL, 4 days at 37° C.; for inhibition at 25 µM: Bos taurus, 96 h, read-out: sGAG Releasing Suppressive Rate (%)
Protocol: Evaluation of Suppressive Action to Cartilage Destruction [Release of sGAG Induced by Interleukin-1α (IL-1α)]
(1) Incubation of Cartilage Pieces
Each four cartilage pieces of bovine metacarpophalangeal joint were placed in each well of a 48-well plate and pretreated for 2 hours with a basal medium [D-MEM (Dulbecco's Modified Eagle Medium) containing 2 mmol/L of glutamine, 25 mmol/L of Hepes, 100 μg/mL of streptomycin, 100 IU/mL of penicillin and 5.6 μg/mL of amphotericin B] containing 25 μmol/L of a test substance. Human recombinant IL-1α (3 ng/mL) was added thereto followed by incubating at 37° C. for 4 days in a CO2 incubator set at 5 vol % of CO2. Culture supernatant and cartilage pieces were recovered and stored by freezing until the measurement for each of them.
(2) Measurement of the Amount of sGAG and Calculation of the Suppressive Rate for the Release of sGAG
The recovered cartilage pieces were treated with a papain solution [containing 1 mg/mL of papain, 100 mmol/L of sodium phosphate (pH 6.5), 5 mmol/L of L-cysteine and 5 mmol/L of disodium ethylenediaminetetraacetate (EDTA)] at 65° C. for about 16 hours to solubilize. Amount of sGAG in the resulting extract was measured using an sGAG Alcian Blue Binding Kit (Wieslab AB) which is a quantitative kit to which a Alcian blue staining protocol is applied. sGAG in the culture supernatant after the incubation was measured without subjecting to a papain treatment. Each releasing rate of sGAG was determined by the following formula to calculate the suppressive rate for the release of sGAG. Releasing rate (%) of sGAG={(Total sGAG amount in the culture supernatant)/[(Total sGAG amount in the culture supernatant)+(Total sGAG amount in the cartilage pieces)]}×100 Suppressive rate (%) for release of sGAG={[Releasing rate of sGAG (IL-1α stimulation)−Releasing rate of sGAG (Test substance)]/[Releasing rate of sGAG (IL-1α stimulation)−Releasing rate of sGAG (Non-stimulation)]}×100

SMILES	activity at 200 µM (HFLS-OA cells) [%]	inhibition at 25 µM [1] [%]	Synovial Cell Proliferation Rate (%) (HFLS-OA cells)	sGAG Releasing Suppressive Rate (%) [1] [%]
Nc1ccc(S(=O)(=O)Nc2cc3cccc(OS(=O)(=O)c4cccc(C(F)(F)F)c4)c3oc2=O)cc1 [Compound 47, 3-[(4-Aminophenyl)sulfonylamino]-2-oxochromen-8-yl 3-(trifluoromethyl)benzenesulfonate]	-40.1	69		
O=c1oc2c(OS(=O)(=O)c3ccccc3)cccc2cc1NS(=O)(=O)c1ccc(-c2ccccc2)cc1 [Compound 30, 2-Oxo-3-[(4-phenylphenyl)sulfonylamino]chromen-8-yl benzenesulfonate]	-33	141		
O=c1oc2c(OS(=O)(=O)c3cccc(Br)c3)cccc2cc1NS(=O)(=O)c1cccc([N+](=O)[O-])c1 [Compound 59, 3-[(3-Nitrophenyl)sulfonylamino]-2-oxochromen-8-yl 3-bromobenzenesulfonate]	-32.8	123		
O=c1oc2c(OS(=O)(=O)c3ccccc3)cccc2cc1NS(=O)(=O)c1ccc(C(F)(F)F)cc1 [Compound 27, 2-Oxo-3-[[4-(trifluoromethyl)phenyl]sulfonylamino]-chromen-8-yl benzenesulfonate]	-36.3	162		
O=c1oc2c(OS(=O)(=O)c3cccc(Br)c3)cccc2cc1NS(=O)(=O)c1cccc(Br)c1 [Compound 32, 3-[(3-Bromophenyl)sulfonylamino]-2-oxochromen-8-yl 3-bromobenzenesulfonate]	-41.1	202		
O=c1oc2c(OS(=O)(=O)c3cccc(C(F)(F)F)c3)cccc2cc1NS(=O)(=O)c1cccc([N+](=O)[O-])c1 [Compound 51]			−36.5	141
O=c1oc2c(OS(=O)(=O)c3ccccc3)cccc2cc1NS(=O)(=O)c1ccc(Cl)cc1 [Compound 29, 3-[(4-Chlorophenyl)sulfonylamino]-2-oxochromen-8-yl benzenesulfonate]	-31.3	121		
O=c1oc2c(OS(=O)(=O)c3cccc(C(F)(F)F)c3)cccc2cc1NS(=O)(=O)c1ccccc1 [Compound 35, 3-(Benzenesulfonamide)-2-oxochromen-8-yl 3-(trifluoromethyl)benzenesulfonate]			−31.5	103
CS(=O)(=O)Oc1cccc2cc(NS(=O)(=O)c3cccc(Br)c3)c(=O)oc12 [Compound 37, 3-[(3-Bromophenyl)sulfonylamino)]-2-oxochromen-8-yl methanesulfonate]			−22.6	17
O=c1oc2c(OS(=O)(=O)c3cccc(C(F)(F)F)c3)cccc2cc1NS(=O)(=O)c1cccc(Br)c1 [Compound 56, 3-[(3-Bromophenyl)sulfonylamino]-2-oxochromen-8-yl 3-(trifluoromethyl)benzenesulfonate]	-44.4	133		
O=c1oc2c(OS(=O)(=O)c3cccc(Br)c3)cccc2cc1NS(=O)(=O)c1cccnc1 [Compound 38, 2-Oxo-3-(3-pyridylsulfonylamino)chromen-8-yl 3-bromobenzenesulfonate]	-31.2	67		
O=c1oc2c(OS(=O)(=O)c3cccc(Br)c3)cccc2cc1NS(=O)(=O)c1ccc(-c2ccccc2)cc1 [Compound 53, 2-Oxo-3-[(4-phenylphenyl)sulfonylamino]chromen-8-yl 3-bromobenzenesulfonate]	-32.3	131		
O=c1oc2c(OS(=O)(=O)c3ccccc3)cccc2cc1NS(=O)(=O)c1cccc([N+](=O)[O-])c1 [Compound 24, 3-[(3-Nitrophenyl)sulfonylamino]-2-oxochromen-8-yl benzenesulfonate]	-40	90		
COc1ccc(S(=O)(=O)Nc2cc3cccc(OS(=O)(=O)c4ccc(OC)cc4)c3oc2=O)cc1 [Compound 1, 3-[(4-Methoxyphenyl)sulfonylamino]-2-oxochromen-8-yl 4-methoxybenzenesulfonate]	-39.1	93		
O=c1oc2c(OS(=O)(=O)c3cccc(Br)c3)cccc2cc1NS(=O)(=O)c1cccc(C(F)(F)F)c1 [Compound 60, 2-Oxo-3-[[3-(trifluoromethyl)phenyl]sulfonylamino]-chromen-8-yl 3-bromobenzenesulfonate]	-44.4	138		
O=c1oc2c(OS(=O)(=O)c3cccc([N+](=O)[O-])c3)cccc2cc1NS(=O)(=O)c1cccs1 [Compound 44, 2-Oxo-3-(2-thienylsulfonylamino)chromen-8-yl 3-nitrobenzenesulfonate]	-31.5	118		
O=c1oc2c(OS(=O)(=O)c3cccc([N+](=O)[O-])c3)cccc2cc1NS(=O)(=O)c1ccc(-c2ccccc2)cc1 [Compound 55, 2-Oxo-3-[(4-phenylphenyl)sulfonylamino]chromen-8-yl 3-nitrobenzenesulfonate]	-32.2	117		
O=c1oc2c(OS(=O)(=O)c3ccc([N+](=O)[O-])cc3)cccc2cc1NS(=O)(=O)c1cccc(C(F)(F)F)c1 [Compound 41, 2-Oxo-3-[[3-(trifluoromethyl)phenyl]sulfonylamino]-chromen-8-yl 4-nitrobenzenesulfonate]	-37.7	172		
